Source: ChEMBL document CHEMBL2401629, “HS-1793, a recently developed resveratrol analogue protects rat heart against hypoxia/reoxygenation injury via attenuating mitochondrial damage” (2013)
Active and inactive are the calls of the source. The calls are words filed in the database; no cut-off is given here.

What was measured:
[1] = Cardioprotective activity in Sprague-Dawley rat cardiomyocytes assessed as reduction of hypoxia/reoxygenation-induced mitochondrial superoxide level at 10 uM after 15 mins by MitoSOX red staining relative to control; format: functional, cell-based; set-up: scale not given: the % may be the effect or the level left; details: Cardiac muscle cell
[2] = Cardioprotective activity in Sprague-Dawley rat cardiomyocytes assessed as reduction of hypoxia/reoxygenation-induced mitochondrial calcium flux at 10 uM after 15 mins by Rhod 2AM staining relative to control; format: functional, cell-based; set-up: scale not given: the % may be the effect or the level left; details: Cardiac muscle cell
[3] = Cardioprotective activity in Sprague-Dawley rat cardiomyocytes assessed as prevention of hypoxia/reoxygenation-induced collapse of state 3 respiration in presence of 100 uM ADP; format: functional, cell-based; details: Cardiac muscle cell
Rattus norvegicus = species on record: Rattus norvegicus; test: Inhibition of calcium-induced cardiac mitochondria swelling in Sprague-Dawley rat at 1 uM after 10 mins; format: functional; details: Heart
[4] = Reduction of ouabain-induced mitochondrial calcium flux in Sprague-Dawley rat cardiomyocytes at 10 uM after 15 mins by Rhod 2AM staining relative to control; format: functional, Cardiac muscle cell; set-up: scale not given: the % may be the effect or the level left
Heart = test: Cardioprotective activity in Sprague-Dawley rat heart assessed as reduction of hypoxia/reoxygenation-induced infarct size at 10 uM treated 30 mins before reoxygenation by triphenyltetrazolium chloride staining (reference value: 42.10 +/- 7.36%); format: functional; set-up: scale not given: the % may be the effect or the level left

Compound: Oc1ccc(-c2ccc3cc(O)ccc3c2)c(O)c1
- Activity [1]: 98.1%
- Activity [2]: 168%
- Activity [3]: Active
- inhibition (Rattus norvegicus): Active
- Activity [4]: 111.82%
- Activity (Heart): 3.92%
